In brackets after ≈: the same amount, converted by molar mass. Several values for one entry are separate records, joined by “and”; a condition that tells them apart may be missing. Equal values may be shown once. Read-outs that look alike come from different tables or passages of the source. Values belong to the compound of their own block, whether it stands above or below them.
What was measured:
[1] = tested on: Staphylococcus aureus NCTC 13373 (mecA-positive; methicillin-resistant); experiment: In vitro antibacterial activity, MIC (UCL School of Pharmacy assay), MRSA; assay type: cell-based; conditions: for MIC: Staphylococcus aureus
In short: (§1)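 Growth inhibition was read as MIC across a two-fold range of 32 down to 0.03 μg/mL in isosensitest broth. Bacteria from overnight plates were set to A600 0.1 in PBS, about 1 × 10^8 CFU/mL, and diluted 1:100 before inoculation.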

[2] = Kinetic solubility estimation using nephelometry (Monash); assay type: physicochemical; conditions: for solubility kinetic at 30 min: kinetic from dmso stock
Protocol: Compound in DMSO was spiked into either pH 6.5 phosphate buffer or 0.01 M HCl (approximately pH 2.0) with the final DMSO concentration being 1%. […]
b) Kinetic Solubility Estimation using Nephelometry (SolpH)
Compound in DMSO was spiked into either pH 6.5 phosphate buffer or 0.01 M HCl (approx pH 2.0) with the final
DMSO concentration being 1%. After 30 minutes had elapsed, samples were then analysed via Nephelometry to
determine a solubility range. See Bevan and Lloyd (2000) Anal Chem, 72:1781-1787. […]
(§2) In Vitro Intrinsic Clearance […]
(§3) Experimental results are tabulated on the following page(s).
(§4) (1 picture or pasted object on this page, not shown here)

[3] = Distribution coefficient estimation using chromatography, gLogD (Monash); assay type: physicochemical
From the text: Partition coefficient values (LogD) of the test compounds were estimated at pH 7.4 by the correlation of their chromatographic retention properties against the characteristics of a series of standard compounds with known partition coefficient values. The method employed is a gradient HPLC-based derivation of the method developed by Lombardo.[42] […]
c) Distribution Coefficient Estimation using Chromatography (gLogDpH)
Partition coefficient values (LogD) of the test compounds were estimated at pH 7.4 by correlation of their
chromatographic retention properties against the characteristics of a series of standard compounds with known
partition coefficient values. […]
as §2, §3, §4

[4] = In vitro metabolic stability, human liver microsomes (Monash); assay type: in vitro ADME
Protocol: (§5) The metabolic stability assay was performed by incubating each test compound with a suspension of liver microsomes (0.4 mg/mL protein, 1 μM substrate, 37 °C). Microsomes were purchased from XenoTech. The metabolic reaction was initiated by the addition of an NADPH-regenerating system and quenched at various time points over a 60 min incubation by the addition of acetonitrile containing metolazone as an internal standard. Control samples (containing no NADPH) were included (quenched at 2, 30, and 60 min) to monitor for potential degradation in the absence of cofactor. […]
(§6) d) In Vitro Metabolic Stability
(§7) The metabolic stability assay was performed by incubating each test compound with a suspension of liver
(§8) microsomes (0.4 mg/mL, 37°C). The metabolic reaction was initiated by the addition of an NADPH-regenerating
(§9) system and quenched at various time points over a 60 minute incubation by the addition of acetonitrile containing
(§10) metolazone as internal standard. Control samples (containing no NADPH) were included (quenched at 2, 30 and 60
(§11) minutes) to monitor for potential degradation in the absence of cofactor.
(§12) The human liver microsomes used in this experiment were supplied by XenoTech, lot # 1710084.The rat liver
(§13) microsomes used in this experiment were supplied by XenoTech, lot # 1610290. Microsomal incubations were
(§14) performed at a substrate concentration of 1 µM.
(§15) Data analysis and interpretation:
(§16) Substrate depletion as a function of time was analysed as described by Obach (1999) Drug Metab. Dispos., 27:1350-
(§17) 1359. Intrinsic clearance (CLint) values were classified at the limits of low and high clearance bands based on a
(§18) rearrangement of the well stirred model of hepatic elimination. It should be noted that the potential impact of
(§19) compound binding (either in microsomes or in blood) on the relationship between in vitro intrinsic clearance and
(§20) hepatic clearance in vivo has not been accounted for in these studies.
(§21) In Vitro Intrinsic Clearance
(§22) Species (µL/min/mg protein)
(§23) Low Clearance High Clearance
as §3, §4

[5] = In vitro metabolic stability, rat liver microsomes (Monash); assay type: in vitro ADME
Protocol: as §5, §6, §7, §8, §9, §10, §11, §12, §13, §14, §15, §16, §17, §18, §19, §20, §21, §22, §23, §3, §4

[6] = Mouse liver microsome (MLM) metabolic stability (UNC); assay type: in vitro ADME
From the text: Supplement id3c00286_si_002.xlsx, sheet "Series 2 Data" | column: MLM Clint (mL/min/kg) (UNC); MLM t1/2 (min) (UNC); MLM E (UNC)

[7] = Rat liver microsome (RLM) metabolic stability (UNC); assay type: in vitro ADME; conditions: rat liver microsomes
From the text: Supplement id3c00286_si_002.xlsx, sheet "Series 2 Data" | column: RLM Clint (mL/min/kg) (UNC); RLM t1/2 (min) (UNC); RLM E (UNC)

[8] = tested on: Enterococcus faecalis ATCC 51299 (vanA-positive; vancomycin-resistant); experiment: In vitro antibacterial activity, MIC (UCL), VRE; assay type: cell-based; conditions: read-out: VRE MIC (UCL)
In short: as §1

Aqueous solubility = assay type: physicochemical; conditions: thermodynamic from solid; NEU; read-out: Aqueous Solubility (NEU)
LogD7.4 (Chrom Log D) = assay type: physicochemical; conditions: chromatographic system (Chrom Log D); pH 7.4, NEU; read-out: LogD 7.4 (NEU)
[9] = Human plasma protein binding (PPB); assay type: in vitro ADME; conditions: human, plasma, human plasma, NEU; read-out: Human PPB (NEU) (converted)
[10] = Human liver microsome intrinsic clearance; assay type: in vitro ADME; conditions: human liver microsomes, NEU; read-out: HLM CLint (NEU)
[11] = Rat hepatocyte intrinsic clearance; assay type: in vitro ADME; conditions: rat hepatocytes, NEU; read-out: Rat Hep CLint (NEU)
[12] = tested on: MRC-5SV2 (human lung fibroblast cell line); experiment: Toxicity against MRC-5SV2; assay type: cell-based; conditions: MRC5 cells
Protocol: (§24) ADME and toxicity for compounds were measured according to procedures outlined in the manuscript submitted in parallel to this one;2 other procedures were used for those compounds analysed by Monash University (in vitro ADME) or UCL (toxicity), both described in the main

[13] = tested on: PMM (primary mouse macrophages); experiment: Toxicity against PMM; assay type: cell-based; conditions: PMM
Protocol: as §24

U2OS = experiment: Toxicity against U2OS; assay type: cell-based; conditions: U2OS cells
From the text: Supplement id3c00286_si_002.xlsx, sheet "Series 2 Data" | column: U2OS TC50 (uM)

THP1 = experiment: Toxicity against THP1; assay type: cell-based; conditions: THP1 cells
From the text: Supplement id3c00286_si_002.xlsx, sheet "Series 2 Data" | column: THP1 TC50 (uM)

p38 kinase = tested on: p38 kinase; design: method as in earlier work; conditions: cited from earlier work
[14] = tested on: Escherichia coli ATCC 25922; experiment: CO-ADD antibacterial assay, E. coli; assay type: cell-based
Protocol: (§25) Hit Confirmation of active compounds by whole cell growth inhibition assays was conducted as an 8-point dose response to determine the Minimum Inhibitory Concentration (MIC), in duplicate (n=2). The inhibition of growth is measured against those microorganisms that […]
(§26) Included in the Hit Confirmation were 5 bacteria: Escherichia coli, Klebsiella pneumoniae, Acinetobacter baumannii, Pseudomonas aeruginosa and Staphylococcus aureus, and 2 fungi Candida albicans and Cryptococcus neoformans. […]
(§27) Assay Parameters Bacteria Fungi HEK293 Haemolysis […]
(§28) Duplicate (n=2) Duplicate (n=2) Duplicate (n=2) Duplicate (n=2)
(§29) QC Control MIC: Control MIC: Control CC50: Control HC10:
(§30) Non-Binding Non-Binding TC, 384-well Polypropylene […]
(§31) All bacteria were cultured in Cation-adjusted Mueller Hinton broth (CAMHB) at 37 °C overnight. […] The resultant mid-log phase cultures were diluted (CFU/mL measured by OD600), then added to each well of the compound containing plates, giving a cell density of 5×10^5 CFU/mL and a total volume of 50 µL. […]
(§32) Inhibition of bacterial growth was determined measuring absorbance at 600 nm (OD600), using a Tecan M1000 Pro monochromator plate reader. The percentage of growth inhibition was calculated for each well, using the negative control (media only) and positive control (bacteria without inhibitors) on the same plate as references. […]

[15] = tested on: Klebsiella pneumoniae ATCC 700603; experiment: CO-ADD antibacterial assay, K. pneumoniae; assay type: cell-based
Protocol: as §25, §26, §27, §28, §29, §30, §31, §32

[16] = tested on: Acinetobacter baumannii ATCC 19606; experiment: CO-ADD antibacterial assay, A. baumannii; assay type: cell-based
Protocol: as §25, §26, §27, §28, §29, §30, §31, §32

[17] = tested on: Pseudomonas aeruginosa ATCC 27853; experiment: CO-ADD antibacterial assay, P. aeruginosa; assay type: cell-based
Protocol: as §25, §26, §27, §28, §29, §30, §31, §32

[18] = NADPH, read-out: CLint, in vitro

- MIC ([1]; UCL, read-out: MRSA MIC (UCL)): 32 µg/mL (≈ 105 µM)
- solubility kinetic at 30 min ([2]; 0.01 M HCl, simulated gastric fluid, pH 2.0, read-out: Sol (pH 2.0) (Monash)): > 100 µg/mL
- solubility kinetic at 30 min ([2]; pH 6.5 phosphate buffer, pH 6.5, aqueous buffer, read-out: Sol (pH 6.5) (Monash)): 50 to 100 µg/mL (≈ 164 to 328 µM)
- chromatographic logD ([3]; gradient HPLC retention against standard compounds, pH 7.4): 1.5
- HLM Clint (Monash) ([4]; Monash): 28 µL/min/mg
- HLM t1/2 (Monash) ([4]; Monash): 62 min
- RLM Clint (Monash) ([5]; Monash): 59 µL/min/mg
- RLM t1/2 (Monash) ([5]; Monash): 29 min
- MLM Clint (UNC) ([6]; mouse liver microsomes): 677 mL/min/kg
- MLM E (UNC) ([6]; mouse liver microsomes): 0.864 and 0.883
- MLM t1/2 (UNC) ([6]; mouse liver microsomes): 8.3 min
- CLint scaled ([6]; mouse, liver microsomes): 569 mL/min/kg
- half-life ([6]; mouse, liver microsomes, read-out: MLM t1/2 (UNC)): 9.87 min
- CLint scaled [7]: 142 mL/min/kg
- RLM E (UNC) [7]: 0.669
- half-life ([7]; read-out: RLM t1/2 (UNC)): 17.7 min
Compound: c1ccc(-c2nc3n(c2-c2ccc4c(c2)OCO4)CCC3)nc1 [OSA_000812]

- MIC ([1]; UCL, read-out: MRSA MIC (UCL)): 8 µg/mL (≈ 26.5 µM)
- MIC [8]: 32 µg/mL (≈ 106 µM)
- solubility (Aqueous solubility): 79 µM (≈ 23.8 µg/mL)
- chromatographic logD (LogD7.4 (Chrom Log D)): 3.1
- fraction unbound [9]: 0.028
- microsomal CLint [10]: 224 µL/min/mg
- hepatocyte CLint [11]: 23.9 µL/min/1e6 cells
Compound: COc1ccn2c(-c3ccccc3)c(-c3ccccn3)nc2c1 [OSA_000860]
- MRC5 TC50 [12]: 3.92 µM
- PMM TC50 [13]: 8 µM
- U2OS TC50 (U2OS): 0.73 µM
- THP1 TC50 (THP1): 5.01 µM

- MIC ([1]; 16 h, read-out: MRSA MIC): > 32 µg/mL
- MIC ([1]; read-out: MRSA MIC): 32 µg/mL (≈ 105 µM)
- Sol 6.5 ([2]; pH 6.5 phosphate buffer): 50 to 100 µg/mL
- gLogD at pH 7.4 [3]: 1.5
- microsomal CLint at 1 µM [4, 18]: 28 µL/min/mg
- half-life at 1 µM ([4]; NADPH, read-out: T1/2): 62 min
- microsomal CLint at 1 µM [5, 18]: 59 µL/min/mg
- half-life at 1 µM ([5]; NADPH, read-out: T1/2): 29 min
Compound: c1ccc(-c2nc3n(c2-c2ccc4c(c2)OCO4)CCC3)nc1 [compound 812]
- activity against MRSA, in words [1]: MRSA-inactive
- inhibition of p38 kinase (p38 kinase): no inhibition

Compound: Colistin - Sulfate
- MIC Escherichia coli [14]: 0.125 µg/mL
- MIC Klebsiella [15]: 0.25 µg/mL
- MIC Acinetobacter baumannii [16]: 0.25 µg/mL
- MIC Pseudomonas aeruginosa [17]: 0.25 µg/mL
